“And” between values parts separate entries of the source, which are not always exact repeats. Equal entries are not always repeated. Non-standard residues stand in square brackets, D forms with d. Residues, ends and D or L forms follow the SMILES beside them.
Columns and labels:
[1] = system: Sprague-Dawley rats; conditions: rat, in vivo
Method: In order to assess such use of the GHRH analogs, the following experiments were undertaken. More specially, the goal was to assess the pharmacodynamic and pharmacokinetic profiles and acute toxicity of GHRH analog #5 when administered once by subcutaneous or intravenous injection to female Sprague-Dawley rats followed by a 14-day observation period and the pharmacodynamic profile in a male Beagle dog when the GHRH analog was administered at escalating doses to the same dog by subcutaneous injection with at least 2-day washout period. The above GHRH analog is a variation of a synthetic acetate salt of an amidated synthetic 29-amino acid peptide that corresponds to the amino-terminal segment of the naturally-occurring human growth hormone—releasing hormone (GHRH) with four amino acid substitutions in positions 2, 10, 15, and 22.
Human GHRH analog #5 in 0.9% sodium chloride for injection USP was administered once either by intravenous (IV) or subcutaneous (SC) injection to female rats followed by a 14-day observation period, as shown in Table 2. Prior to administration, all dosing formulations were filtered using a 0.22 μm filter to ensure sterility. The actual amount of GHRH analog #5 administered was calculated and adjusted based on the animal's most recent body weight. Dosing started at approximately the same time each day, commencing at 9:00 am ±30 minutes.

[2] = system: malnourished subjects with CKD; assay: Phase II CKD: anthropometry; type: in vivo, human; conditions: ITT
Method: Height (cm) was measured only at the screening visit. Anthrompometry was measured at every visit from baseline to follow-up. Anthropometric measurements included weight, skinfold thicknesses and arm circumference. Weight (kg) was measured using a high performance scale. Subjects were asked to stand on the scale with minimal clothing, no shoes, and with even weight on both feet. Skinfold thickness (mm) was measured by using Harpenden Skinfold Callipers at 4 sites: biceps, triceps, suprailiacal and subscapular. Arm circumference (cm) was measured using a tape measure that is flexible, inelastic and metric. The site measured was marked, and the tape was not to be too tight or too loose, and to lie flat on the skin, and be horizontal. Bioimpedance measurements were made to measure body composition at every visit from baseline to Day 28. The bioimpedance scale (RJL Systems) was used. Resistance, reactance and the phase angle were recorded.

[3] = system: malnourished subjects with CKD; assay: Phase II CKD: biochemical markers of nutritional and metabolic state (plasma proteins, glucose control, lipids); type: in vivo, human
Method: Plasma proteins were measured as markers for renal disease and malnourishment. Blood samples were analysed locally. Albumin (g/L) were measured at screening, baseline and on Day 28. Blood samples for measurement of pre-albumin (g/L) were collected at baseline, Day 14 and Day 28. Transferrin (g/L) was measured at baseline, Day 7, Day 14 and Day 28.
HbA1c (%) was measured at screening and Day 28 as a marker for long-term glucose control. Fasting insulin (μunits/mL) and fasting glucose (mmol/L) were measured at baseline, Day 7, Day 14 and Day 28 as markers for short-term glucose control.
Fasting triglyceride (mmol/L) and fasting cholesterol (mmol/L) were measured at baseline, Day 7, Day 14 and Day 28 as markers for lipid metabolism.

[4] = system: malnourished subjects with CKD; assay: Phase II CKD: abnormal and clinically significant haematology values; type: in vivo, human; conditions: for Subjects with abnormal and clinically significant Basophils (%) / Subjects with abnormal and clinically significant Eosinophils (%) / Subjects with abnormal and clinically significant Haematocrit (%) / Subjects with abnormal and clinically significant Haemoglobin (%) / Subjects with abnormal and clinically significant Lymphocytes (%) / Subjects with abnormal and clinically significant MCV (%) / Subjects with abnormal and clinically significant Monocytes (%) / Subjects with abnormal and clinically significant Neutrophils (%) / Subjects with abnormal and clinically significant Platelet count (%) / Subjects with abnormal and clinically significant RBC (%) / Subjects with abnormal and clinically significant WBC (%): safety analysis set
Description: The number of subjects with abnormal and clinically significant laboratory values at baseline and at Day 28 is presented in Table 35 (haematology) and Table 36 clinical chemistry. Overall, the number of subjects with abnormal and clinically significant laboratory values was similar in the GHRH(1-29)NH2 synthetic analog and placebo groups. No clear trends were observed.

[5] = system: malnourished subjects with CKD; assay: Phase II CKD: adverse events; type: in vivo, human; conditions: 28 days
Description: The number and nature of AEs was consistent with subjects with chronic renal failure. Although the number of AEs reported by subjects in the GHRH(1-29)NH2 synthetic analog group was higher than the number reported by subjects in the placebo group (70 vs. 58), there was no clear pattern to distinguish the treatments from each other in safety terms. This might be partly due to the relatively low number of subjects in the study but, overall, the 2 groups were generally balanced with respect to the nature and incidence of AEs.

## CC[C@H](C)[C@H](NC(=O)[C@H](C)NC(=O)[C@H](CC(=O)O)NC(=O)[C@@H](C)NC(=O)[C@@H](N)Cc1ccc(O)cc1)C(=O)N[C@@H](Cc1ccccc1)C(=O)N[C@H](C(=O)N[C@@H](CC(N)=O)C(=O)N[C@@H](CO)C(=O)N[C@H](Cc1ccc(O)cc1)C(=O)N[C@@H](CCCNC(=N)N)C(=O)N[C@@H](CCCCN)C(=O)N[C@H](C(=O)N[C@@H](CC(C)C)C(=O)N[C@H](C)C(=O)N[C@@H](CCC(N)=O)C(=O)N[C@@H](CC(C)C)C(=O)N[C@@H](CO)C(=O)N[C@@H](C)C(=O)N[C@@H](CCCNC(=N)N)C(=O)N[C@@H](CCCCN)C(=O)N[C@@H](CCCCN)C(=O)N[C@@H](CC(C)C)C(=O)N[C@@H](CCC(N)=O)C(=O)N[C@@H](CC(=O)O)C(=O)N[C@H](C(=O)N[C@@H](CCSC)C(=O)N[C@@H](CO)C(=O)N[C@@H](CCCNC(=N)N)C(N)=O)[C@@H](C)CC)C(C)C)[C@@H](C)O [GHRH analog #5, [D-Ala^2, D-Tyr^10, D-Ala^15, Lys^22] hGHRH(1-29)-NH2] (H-Y[dA]DAIFTNS[dY]RKVL[dA]QLSARKKLQDIMSR-NH2)
[1]
  Treatment-related clinical signs: No treatment-related clinical signs were observed
[2]; Baseline
  Arm circumference: mean (SD): 26.35 (5.42) cm
  Body weight: mean (SD): 62.84 (9.98) kg
  Skinfold thickness biceps: median: 5.1 mm
  Skinfold thickness subscapular: median: 8.0 mm
  Skinfold thickness suprailiacal: median: 7.0 mm
  Skinfold thickness triceps: median: 12.0 mm
[2]; Day 28
  Arm circumference: mean (SD): 27.33 (4.81) cm
  Body weight: mean (SD): 63.21 (10.45) kg
  Skinfold thickness biceps: median: 4.1 mm
  Skinfold thickness subscapular: median: 8.6 mm
  Skinfold thickness suprailiacal: median: 7.3 mm
  Skinfold thickness triceps: median: 13.3 mm
[2]; vs placebo
  Arm circumference: adjusted difference: 0.33 cm
  Body weight: adjusted difference: 0.96 kg
  Skinfold thickness triceps: ratio: 1.066
[2]; anthropometry, Baseline
  Fat free mass (kg): mean (SD): 46.64 (9.13) kg
  Fat mass (%): median: 25.4%
  Fat mass (kg): median: 15.8 kg
[2]; anthropometry, Baseline, listed as GHRH(1-29)NH2 synthetic analog
  Fat free mass (kg): mean (SD): 46.64 kg
[2]; anthropometry, Day 28
  Fat free mass (kg): mean (SD): 46.20 (9.16) kg
  Fat mass (%): median: 25.9%
  Fat mass (kg): median: 15.6 kg
[2]; anthropometry, Day 28, listed as GHRH(1-29)NH2 synthetic analog
  Fat free mass (kg): mean (SD): 46.20 kg
[2]; anthropometry, vs placebo
  Fat free mass (kg): adjusted difference: 0.41 kg
[3]; ITT
  Fasting cholesterol: mean difference (GHRH-Placebo): −0.58
[3]; ITT, Baseline
  Albumin: median: 41.0 g/L
  Fasting glucose: median: 5.1 mmol/L
  Fasting insulin: median: 8.4 μ units/mL
  Fasting triglycerides: median: 1.40 mmol/L
  Pre-albumin: mean (SD): 0.216 (0.088) g/L
  Transferrin: mean (SD): 2.202 (0.315) g/L
[3]; ITT, Day 28
  Albumin: median: 40.4 g/L
  Fasting glucose: median: 5.4 mmol/L
  Fasting insulin: median: 12.1 μ units/mL
  Fasting triglycerides: median: 1.98 mmol/L
  HbA1c: median: 5.606%
  Pre-albumin: mean (SD): 0.201 (0.103) g/L
  Transferrin: mean (SD): 2.383 (0.370) g/L
[3]; ITT, Day 28, listed as GHRH(1-29)NH2 synthetic analog
  Fasting cholesterol: median: 4.69 mmol/L
[3]; ITT, Screening
  HbA1c: median: 5.516%
[3]; ITT, vs placebo
  Fasting glucose: ratio of means: 1.030
  Fasting insulin: ratio of means: 1.79 and 1.788
  Fasting triglycerides: ratio of means: 1.199
  Pre-albumin: comparison or ratio of means: −0.093
  Transferrin: comparison or ratio of means: 0.06
[3]; day 7
  Fasting insulin: median: 14.2 μunits/ml
[3]; day 14
  Fasting insulin: median: 15.5 μunits/ml
[3]; in vivo
  Reduction of mean cholesterol in almost all patients (10/12): up to 10%
[4]; Baseline
  Subjects with abnormal and clinically significant Basophils (%): (0.0%)
  Subjects with abnormal and clinically significant Eosinophils (%): (0.0%)
  Subjects with abnormal and clinically significant Haematocrit (%): (7.7%)
  Subjects with abnormal and clinically significant Haemoglobin (%): (23.1%)
  Subjects with abnormal and clinically significant Lymphocytes (%): (0.0%)
  Subjects with abnormal and clinically significant MCV (%): (0.0%)
  Subjects with abnormal and clinically significant Monocytes (%): (7.7%)
  Subjects with abnormal and clinically significant Neutrophils (%): (7.7%)
  Subjects with abnormal and clinically significant Platelet count (%): (0.0%)
  Subjects with abnormal and clinically significant RBC (%): (7.7%)
  Subjects with abnormal and clinically significant WBC (%): (0.0%)
[4]; Day 28
  Number of subjects with abnormal and clinically significant haematocrit: 4 subjects
  Subjects with abnormal and clinically significant Basophils (%): (0.0%)
  Subjects with abnormal and clinically significant Eosinophils (%): (0.0%)
  Subjects with abnormal and clinically significant Haematocrit (%): (33.3%)
  Subjects with abnormal and clinically significant Haemoglobin (%): (41.7%)
  Subjects with abnormal and clinically significant Lymphocytes (%): (0.0%)
  Subjects with abnormal and clinically significant MCV (%): (0.0%)
  Subjects with abnormal and clinically significant Monocytes (%): (8.3%)
  Subjects with abnormal and clinically significant Neutrophils (%): (16.7%)
  Subjects with abnormal and clinically significant Platelet count (%): (0.0%)
  Subjects with abnormal and clinically significant RBC (%): (25.0%)
  Subjects with abnormal and clinically significant WBC (%): (0.0%)
[4]; baseline
  Number of subjects with abnormal and clinically significant haematocrit: 1 subject
[5]
  Number of AEs reported: 70

Source: patent publication US20090088380A1, “GHRH ANALOGS AND THERAPEUTIC USES THEREOF” (priority 2007, published 2009)
